Measured values reported in paper PMC12649549, “Sequence Permutation Generated Lysine and Tryptophan-Rich Antimicrobial Peptides with Enhanced Therapeutic Index” (Antibiotics, 2025).
Where two headings read alike, the source gives them in different places.

How the values were obtained:
[1] = system: A. baumannii 14B0097 (Acinetobacter sp., BCRC number 14B0097)
Outline: (§1)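 Salt and pH tolerance was assessed by determining MICs in LYM medium containing 50–300 mM NaCl, 0.5–2.5 mM MgCl2, or at pH 4.5–6.5, alongside MH broth. The inoculum was 5 × 10^5 CFU/mL.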

[2] = system: A. baumannii 14B0091 (Acinetobacter sp., BCRC number 14B0091)
Outline: as §1

[3] = system: S. aureus ATCC 25923
Outline: as §1

[4] = system: S. aureus ATCC 33591
Outline: as §1

[5] = system: S. aureus ATCC 6538
Outline: as §1

[6] = system: Pseudomonas aeruginosa Migula (ATCC 27853)
Outline: as §1

[7] = system: Escherichia coli (ATCC 25922)
Outline: as §1

[8] = LYM broth, 0 mM NaCl, 16 h, 37 °C
[9] = LYM broth, 50 mM NaCl, 16 h, 37 °C
[10] = LYM broth, 100 mM NaCl, 16 h, 37 °C
[11] = LYM broth, 200 mM (NaCl), 16 h, 37 °C
[12] = LYM broth, 300 mM (NaCl), 16 h, 37 °C
[13] = MH broth, 5 × 10^5 CFU/mL, 16 h, 37 °C, repeated three times

Ac-KKWRKWLKWLAKK-NH2 [W5K/A9W]
MIC [1, 8]: 1.56 µg/mL | MIC ([1]; LYM broth, 0.5 mM MgCl2): 1.56 µg/mL | MIC ([1]; LYM broth, 1.5 mM MgCl2): 1.56 µg/mL | MIC ([1]; LYM broth, 2.5 mM MgCl2): 1.56 µg/mL | MIC [1, 9]: 1.56 µg/mL | MIC [1, 10]: 1.56 µg/mL | MIC [1, 11]: 1.56 µg/mL | MIC [1, 12]: 1.56 µg/mL | MIC ([1]; LYM broth, pH 4.5): 1.56 µg/mL | MIC ([1]; LYM broth, pH 5.5): 1.56 µg/mL | MIC ([1]; LYM broth, pH 6.5): 1.56 µg/mL | MIC [1, 13]: 1.56 µg/mL | MIC [2, 8]: 1.56 µg/mL | MIC ([2]; LYM broth, 0.5 mM MgCl2): 1.56 µg/mL | MIC ([2]; LYM broth, 1.5 mM MgCl2): 1.56 µg/mL | MIC ([2]; LYM broth, 2.5 mM MgCl2): 1.56 µg/mL | MIC [2, 9]: 1.56 µg/mL | MIC [2, 10]: 1.56 µg/mL | MIC [2, 11]: 1.56 µg/mL | MIC [2, 12]: 1.56 µg/mL | MIC ([2]; LYM broth, pH 4.5): 1.56 µg/mL | MIC ([2]; LYM broth, pH 5.5): 1.56 µg/mL | MIC ([2]; LYM broth, pH 6.5): 1.56 µg/mL | MIC [2, 13]: 1.56 µg/mL | MIC [3, 8]: 1.56 µg/mL | MIC ([3]; LYM broth, 0.5 mM MgCl2): 1.56 µg/mL | MIC ([3]; LYM broth, 1.5 mM MgCl2): 3.13 µg/mL | MIC ([3]; LYM broth, 2.5 mM MgCl2): 3.13 µg/mL | MIC [3, 9]: 1.56 µg/mL | MIC [3, 10]: 3.13 µg/mL | MIC [3, 11]: 3.13 µg/mL | MIC [3, 12]: 6.25 µg/mL | MIC ([3]; LYM broth, pH 4.5): 3.13 µg/mL | MIC ([3]; LYM broth, pH 5.5): 1.56 µg/mL | MIC ([3]; LYM broth, pH 6.5): 1.56 µg/mL | MIC [3, 13]: 3.13 µg/mL | MIC [4, 8]: 3.13 µg/mL | MIC ([4]; LYM broth, 0.5 mM MgCl2): 3.13 µg/mL | MIC ([4]; LYM broth, 1.5 mM MgCl2): 3.13 µg/mL | MIC ([4]; LYM broth, 2.5 mM MgCl2): 3.13 µg/mL | MIC [4, 9]: 3.13 µg/mL | MIC [4, 10]: 6.25 µg/mL | MIC [4, 11]: 6.25 µg/mL | MIC [4, 12]: 12.5 µg/mL | MIC ([4]; LYM broth, pH 4.5): 3.13 µg/mL | MIC ([4]; LYM broth, pH 5.5): 3.13 µg/mL | MIC ([4]; LYM broth, pH 6.5): 3.13 µg/mL | MIC [4, 13]: 12.5 µg/mL | MIC [5, 8]: 1.56 µg/mL | MIC ([5]; LYM broth, 0.5 mM MgCl2): 1.56 µg/mL | MIC ([5]; LYM broth, 1.5 mM MgCl2): 1.56 µg/mL | MIC ([5]; LYM broth, 2.5 mM MgCl2): 1.56 µg/mL | MIC [5, 9]: 1.56 µg/mL | MIC [5, 10]: 1.56 µg/mL | MIC [5, 11]: 3.13 µg/mL | MIC [5, 12]: 6.25 µg/mL | MIC ([5]; LYM broth, pH 4.5): 3.13 µg/mL | MIC ([5]; LYM broth, pH 5.5): 1.56 µg/mL | MIC ([5]; LYM broth, pH 6.5): 1.56 µg/mL | MIC [5, 13]: 6.25 µg/mL | MIC [6, 8]: 1.56 µg/mL | MIC ([6]; LYM broth, 0.5 mM MgCl2): 1.56 µg/mL | MIC ([6]; LYM broth, 1.5 mM MgCl2): 3.13 µg/mL | MIC ([6]; LYM broth, 2.5 mM MgCl2): 3.13 µg/mL | MIC [6, 9]: 1.56 µg/mL | MIC [6, 10]: 1.56 µg/mL | MIC [6, 11]: 3.13 µg/mL | MIC [6, 12]: 6.25 µg/mL | MIC ([6]; LYM broth, pH 4.5): 1.56 µg/mL | MIC ([6]; LYM broth, pH 5.5): 1.56 µg/mL | MIC ([6]; LYM broth, pH 6.5): 1.56 µg/mL | MIC [6, 13]: 3.13 µg/mL | MIC [7, 8]: 1.56 µg/mL | MIC ([7]; LYM broth, 0.5 mM MgCl2): 3.13 µg/mL | MIC ([7]; LYM broth, 1.5 mM MgCl2): 3.13 µg/mL | MIC ([7]; LYM broth, 2.5 mM MgCl2): 6.25 µg/mL | MIC [7, 9]: 1.56 µg/mL | MIC [7, 10]: 3.13 µg/mL | MIC [7, 11]: 3.13 µg/mL | MIC [7, 12]: 12.5 µg/mL | MIC ([7]; LYM broth, pH 4.5): 1.56 µg/mL | MIC ([7]; LYM broth, pH 5.5): 1.56 µg/mL | MIC ([7]; LYM broth, pH 6.5): 1.56 µg/mL | MIC [7, 13]: 3.13 µg/mL
